{"source": "patent US20260314598A1", "about": "“THE USE OF FLORPYRAUXIFEN-BENZYL AS A SOYBEAN HARVEST AID” (CORTEVA AGRISCIENCE LLC, priority 2022, published 2026)", "system": "soybean plants", "test": "Field trial of soybean pre-harvest desiccation: visual defoliation after a single spray", "format": "in vivo", "conditions": "for Percentage of defoliation (raw data): single application at R7.2, 100 L/ha spray; for Percentage of defoliation (Abbot's formula): single application at R7.2, adjusted to untreated", "procedure": "Field trials were carried out to test the soybean desiccation efficacy of florpyrauxifen-benzyl at 5, 7.5, 10, 15 and 20 g a.i./ha. Soybean plants were sprayed at the R7.2 soybean growth stage.\n[…] Herbicides were diluted in water and a single application for each rate (backpack sprayer) was performed employing 100 L/ha of spray solution. The percentage of visual defoliation was assessed at 3, 7 and 10 days after spray application. The significance of treatment effects was evaluated with F-approximate test (α=0.05) and least square means from different treatments were compared with Tukey's test, after adjusting the % defoliation using Abbott's formula (Abbott, W. S., 1925. A method of computing the effectiveness of an insecticide. J. Econ. Entomol. 18:265-267).", "key": {"[1]": {"conditions": "3 DAA, 370 g ai/ha, untreated 74.4"}, "[2]": {"conditions": "10 DAA, 370 g ai/ha, untreated 89.8"}}, "data": [{"smiles": "CP(=O)(O)CCC(N)C(=O)O", "note": "(centres unmarked) [Ammonium glufosinate, ammonium-glufosinate]", "values": [{"measurement": "Percentage of defoliation (raw data)", "setting": "[1]", "value": 84.9, "unit": "%"}, {"measurement": "Percentage of defoliation (Abbot's formula)", "setting": "3 DAA, 370 g ai/ha", "value": 16.4, "unit": "%"}, {"measurement": "Percentage of defoliation (raw data)", "setting": "7 DAA, 370 g ai/ha", "value": 93.9, "unit": "%"}, {"measurement": "Percentage of defoliation (Abbot's formula)", "setting": "7 DAA, 370 g ai/ha", "value": 13.9, "unit": "%"}, {"measurement": "Percentage of defoliation (raw data)", "setting": "[2]", "value": 98.1, "unit": "%"}, {"measurement": "Percentage of defoliation (Abbot's formula)", "setting": "10 DAA, 370 g ai/ha", "value": 10.8, "unit": "%"}]}, {"smiles": "c1cc[n+]2c(c1)-c1cccc[n+]1CC2", "note": "[Diquat, diquat]", "values": [{"measurement": "Percentage of defoliation (raw data)", "setting": "[1]", "value": 95.7, "unit": "%"}, {"measurement": "Percentage of defoliation (Abbot's formula)", "setting": "3 DAA, 370 g ai/ha", "value": 31.7, "unit": "%"}, {"measurement": "Percentage of defoliation (raw data)", "setting": "7 DAA, 370 g ai/ha", "value": 98.9, "unit": "%"}, {"measurement": "Percentage of defoliation (Abbot's formula)", "setting": "7 DAA, 370 g ai/ha", "value": 20.5, "unit": "%"}, {"measurement": "Percentage of defoliation (raw data)", "setting": "[2]", "value": 99.8, "unit": "%"}, {"measurement": "Percentage of defoliation (Abbot's formula)", "setting": "10 DAA, 370 g ai/ha", "value": 12.9, "unit": "%"}]}, {"smiles": "COc1c(Cl)ccc(-c2nc(C(=O)OCc3ccccc3)c(Cl)c(N)c2F)c1F", "note": "[Florpyrauxifen-benzyl, florpyrauxifen-benzyl]", "values": [{"measurement": "Percentage of defoliation (raw data)", "setting": "3 DAA, 5 g ai/ha, untreated 74.4", "value": 78.8, "unit": "%"}, {"measurement": "Percentage of defoliation (Abbot's formula)", "setting": "3 DAA, 5 g ai/ha", "value": 7.4, "unit": "%"}, {"measurement": "Percentage of defoliation (raw data)", "setting": "3 DAA, 7.5 g ai/ha, untreated 74.4", "value": 80.8, "unit": "%"}, {"measurement": "Percentage of defoliation (Abbot's formula)", "setting": "3 DAA, 7.5 g ai/ha", "value": 10.0, "unit": "%"}, {"measurement": "Percentage of defoliation (raw data)", "setting": "3 DAA, 10 g ai/ha, untreated 74.4", "value": 81.3, "unit": "%"}, {"measurement": "Percentage of defoliation (Abbot's formula)", "setting": "3 DAA, 10 g ai/ha", "value": 10.7, "unit": "%"}, {"measurement": "Percentage of defoliation (raw data)", "setting": "3 DAA, 15 g ai/ha, untreated 74.4", "value": 82.4, "unit": "%"}, {"measurement": "Percentage of defoliation (Abbot's formula)", "setting": "3 DAA, 15 g ai/ha", "value": 12.3, "unit": "%"}, {"measurement": "Percentage of defoliation (raw data)", "setting": "3 DAA, 20 g ai/ha, untreated 74.4", "value": 84.3, "unit": "%"}, {"measurement": "Percentage of defoliation (Abbot's formula)", "setting": "3 DAA, 20 g ai/ha", "value": 15.3, "unit": "%"}, {"measurement": "Percentage of defoliation (raw data)", "setting": "7 DAA, 5 g ai/ha", "value": 89.3, "unit": "%"}, {"measurement": "Percentage of defoliation (Abbot's formula)", "setting": "7 DAA, 5 g ai/ha", "value": 7.8, "unit": "%"}, {"measurement": "Percentage of defoliation (raw data)", "setting": "7 DAA, 7.5 g ai/ha", "value": 90.8, "unit": "%"}, {"measurement": "Percentage of defoliation (Abbot's formula)", "setting": "7 DAA, 7.5 g ai/ha", "value": 9.6, "unit": "%"}, {"measurement": "Percentage of defoliation (raw data)", "setting": "7 DAA, 10 g ai/ha", "value": 91.4, "unit": "%"}, {"measurement": "Percentage of defoliation (Abbot's formula)", "setting": "7 DAA, 10 g ai/ha", "value": 10.4, "unit": "%"}, {"measurement": "Percentage of defoliation (raw data)", "setting": "7 DAA, 15 g ai/ha", "value": 93.0, "unit": "%"}, {"measurement": "Percentage of defoliation (Abbot's formula)", "setting": "7 DAA, 15 g ai/ha", "value": 12.7, "unit": "%"}, {"measurement": "Percentage of defoliation (raw data)", "setting": "7 DAA, 20 g ai/ha", "value": 94.5, "unit": "%"}, {"measurement": "Percentage of defoliation (Abbot's formula)", "setting": "7 DAA, 20 g ai/ha", "value": 14.7, "unit": "%"}, {"measurement": "percentage of defoliation compared to untreated plants, versus standards", "setting": "7 DAA, rate not restated (15 and 20 g ai/ha in preceding sentence), Tukey's test", "value": "statistically equivalent to both ammonium-glufosinate and diquat"}, {"measurement": "Percentage of defoliation (raw data)", "setting": "10 DAA, 5 g ai/ha, untreated 89.8", "value": 97.1, "unit": "%"}, {"measurement": "Percentage of defoliation (Abbot's formula)", "setting": "10 DAA, 5 g ai/ha", "value": 9.5, "unit": "%"}, {"measurement": "Percentage of defoliation (raw data)", "setting": "10 DAA, 7.5 g ai/ha, untreated 89.8", "value": 97.9, "unit": "%"}, {"measurement": "Percentage of defoliation (Abbot's formula)", "setting": "10 DAA, 7.5 g ai/ha", "value": 10.4, "unit": "%"}, {"measurement": "Percentage of defoliation (raw data)", "setting": "10 DAA, 10 g ai/ha, untreated 89.8", "value": 97.9, "unit": "%"}, {"measurement": "Percentage of defoliation (Abbot's formula)", "setting": "10 DAA, 10 g ai/ha", "value": 10.5, "unit": "%"}, {"measurement": "Percentage of defoliation (raw data)", "setting": "10 DAA, 15 g ai/ha, untreated 89.8", "value": 98.6, "unit": "%"}, {"measurement": "Percentage of defoliation (Abbot's formula)", "setting": "10 DAA, 15 g ai/ha", "value": 11.3, "unit": "%"}, {"measurement": "Percentage of defoliation (raw data)", "setting": "10 DAA, 20 g ai/ha, untreated 89.8", "value": 99.1, "unit": "%"}, {"measurement": "Percentage of defoliation (Abbot's formula)", "setting": "10 DAA, 20 g ai/ha", "value": 11.9, "unit": "%"}, {"measurement": "percentage of defoliation compared to untreated plants, versus standard", "setting": "15 and 20 g ai/ha, 3 DAA, F-approximate test (α=0.05), Tukey's test", "value": "statistically equivalent to ammonium-glufosinate"}]}]}
